Results from US8063044B2, “Pyrazole derivatives” (Pfizer Inc., priority 2001, dated 2011).

What was measured:
[1] = target: T1, purified recombinant HIV-1 reverse transcriptase (Human immunodeficiency virus type 1 group M subtype B, UniProt P04585); experiment: Inhibition of HIV-1 reverse transcriptase enzyme ([3H]-SPA or flashplate assay); assay type: biochemical; settings: recombinant RT expressed in Escherichia Coli; Poly(rA)-oligo(dT) [3H]-SPA or [3H]-flashplate assay; 5% final DMSO; read-out: IC50 (concentration at which the compound inhibited the reverse transcriptase by 50%)
T1 construct: purified recombinant HIV-1 reverse transcriptase (RT, EC, 2.7.7.49); made in house; host or cells: Escherichia coli
Description: A. Inhibition of HIV-1 Reverse Transcriptase Enzyme
The reverse transcriptase activity of the compounds of the invention may be assayed as following. Using the purified recombinant HIV-1 reverse transcriptase (RT, EC, 2.7.7.49) obtained by expression in Escherichia Coli, a 96-well plate assay system was established for assaying a large number of samples using either the Poly(rA)-oligo(dT) Reverse Transcriptase [3H]-SPA enzyme assay system (Amersham NK9020) or the [3H]-flashplate enzyme assay system (NEN-SMP 103) and following the manufacturer's recommendations. The compounds were dissolved in 100% DMSO and diluted with the appropriate buffer to a 5% final DMSO concentration. The inhibitory activity was expressed in percent inhibition relative to the DMSO control.

Structure (SMILES)	melting point	IC50 [1]
CCc1nn(CC#N)c(CC)c1Oc1cc(Cl)cc(Cl)c1	70 to 72 °C	
CCc1nn(Cc2cc(=O)[nH]c(N)n2)c(CC)c1Oc1cc(Cl)cc(Cl)c1 [Example 7, 2-Amino-6-{[4-(3,5-dichlorophenoxy)-3,5-diethyl-1H-pyrazol-1-yl]methyl}-4(3H)-pyrimidinone]		39 µM
CCc1nn(CCO)c(CC)c1Oc1c(C)cc(C#N)cc1C [Example 20]		3.2 µM
CCc1nn(C2CNC2)c(CC)c1Oc1cc(Cl)cc(Cl)c1 [Example 51, 1-(3-Azetidinyl)-4-(3,5-dichlorophenoxy)-3,5-diethyl-1H-pyrazole]		0.248 µM
